Results taken from patent US9113629B2, “4-amino-6-(4-substituted-phenyl)-picolinates and 6-amino-2-(4-substituted-phenyl)-pyrimidine-4-carboxylates and their use as herbicides” (DOW AGROSCIENCES LLC, priority 2013, dated 2015).
Where two headings read alike, the source gives them in different places.

How the values were obtained:
[1] = tested on: Key Broadleaf Weed and Crop Species; test: Post-emergent Test II herbicidal activity (Table 5); format: in vivo; details: post-emergence, 336 h, post-emergent, 14 days after application; for pest or weed control at 70 g/ha: 70 g ai/ha; for pest or weed control at 140 g/ha: 140 g ai/ha
Method in brief: (§1)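 Foliar application at 187 L/ha to greenhouse-grown seedlings (first or second true leaf); subirrigation thereafter. Visual 0–100% injury at 14 d relative to untreated plants.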

[2] = tested on: Key Grass and Sedge Weeds as well as Grass Crops; test: Post-emergent Test II herbicidal activity (Table 6); format: in vivo; details: post-emergence, 336 h; for pest or weed control at 70 g/ha: application rate 70 g ai/ha; for pest or weed control at 140 g/ha: application rate 140 g ai/ha
Method in brief: as §1

[3] = ABUTH: velvetleaf (Abutilon theophrasti), read-out: Visual Growth Reduction (%) 14 Days After Application ABUTH
[4] = AMARE: redroot pigweed (Amaranthus retroflexus), read-out: Visual Growth Reduction (%) 14 Days After Application AMARE
[5] = BRSNN: oilseed-rape, canola (Brassica napus), read-out: Visual Growth Reduction (%) 14 Days After Application BRSNN
[6] = CHEAL: lambsquarters (Chenopodium album), read-out: Visual Growth Reduction (%) 14 Days After Application CHEAL
[7] = EPHHL: wild poinsettia (Euphorbia heterophylla), read-out: Visual Growth Reduction (%) 14 Days After Application EPHHL
[8] = HELAN: sunflower (Helianthus annuus), read-out: Visual Growth Reduction (%) 14 Days After Application HELAN
[9] = VIOTR: wild pansy (Viola tricolor), read-out: Visual Growth Reduction (%) 14 Days After Application VIOTR
[10] = Triticum aestivum, TRZSS (wheat), read-out: Visual Growth Reduction (%) 14 Days After Application, TRZSS
[11] = CYPES: yellow nutsedge (Cyperus esculentus), read-out: Visual Growth Reduction (%) 14 Days After Application, CYPES
[12] = DIGSA: crabgrass (Digitaria sanguinalis), read-out: Visual Growth Reduction (%) 14 Days After Application, DIGSA
[13] = ECHCG: barnyardgrass (Echinochloa crus-galli), read-out: Visual Growth Reduction (%) 14 Days After Application, ECHCG
[14] = ORYSA: rice (Oryza sativa), read-out: Visual Growth Reduction (%) 14 Days After Application, ORYSA
[15] = SETFA: giant foxtail (Setaria faberi), read-out: Visual Growth Reduction (%) 14 Days After Application, SETFA
[16] = SORVU: grain sorghum (Sorghum vulgare), read-out: Visual Growth Reduction (%) 14 Days After Application, SORVU
[17] = ZEAMX: maize, corn (Zea mays), read-out: Visual Growth Reduction (%) 14 Days After Application, ZEAMX

Work on COC(=O)c1nc(-c2cc(F)c(F)cc2F)c(F)c(N)c1Cl [Compound 200, Methyl 4-amino-3-chloro-5-fluoro-6-(2,4,5-trifluorophenyl)picolinate] yielded a pest or weed control at 70 g/ha [1, 3] of 95 to 100%, a pest or weed control at 140 g/ha [1, 3] of 95 to 100% and a pest or weed control at 70 g/ha [1, 4] of 95 to 100%. For the same compound, the pest or weed control at 140 g/ha [1, 4] was 95 to 100%, the pest or weed control at 70 g/ha [1, 5] was 95 to 100% and the pest or weed control at 140 g/ha [1, 5] was 95 to 100%. For the same compound, the pest or weed control at 70 g/ha [1, 6] was 95 to 100%, the pest or weed control at 140 g/ha [1, 6] was 95 to 100% and the pest or weed control at 70 g/ha [1, 7] was 95 to 100%. The pest or weed control at 140 g/ha [1, 7] was 95 to 100%, the pest or weed control at 70 g/ha [1, 8] was 85 to 94% and the pest or weed control at 140 g/ha [1, 8] was 95 to 100%. It also gave a pest or weed control at 70 g/ha [1, 9] of 75 to 84%, a pest or weed control at 140 g/ha [1, 9] of 95 to 100% and a pest or weed control at 70 g/ha [2, 10] of 30 to 44%. The pest or weed control at 140 g/ha [2, 10] was 30 to 44%, the pest or weed control at 70 g/ha [2, 11] was 0 to 29% and the pest or weed control at 140 g/ha [2, 11] was 45 to 59%. It also gave a pest or weed control at 70 g/ha [2, 12] of 75 to 84%, a pest or weed control at 140 g/ha [2, 12] of 75 to 84% and a pest or weed control at 70 g/ha [2, 13] of 75 to 84%. For the same compound, the pest or weed control at 140 g/ha [2, 13] was 75 to 84%, the pest or weed control at 70 g/ha [2, 14] was 0 to 29% and the pest or weed control at 140 g/ha [2, 14] was 0 to 29%. For the same compound, the pest or weed control at 70 g/ha [2, 15] was 45 to 59%, the pest or weed control at 140 g/ha [2, 15] was 75 to 84% and the pest or weed control at 70 g/ha [2, 16] was 0 to 29%. It also gave a pest or weed control at 140 g/ha [2, 16] of 0 to 29%, a pest or weed control at 70 g/ha [2, 17] of 45 to 59% and a pest or weed control at 140 g/ha [2, 17] of 60 to 74%.
